Measurements reported in ChEMBL document CHEMBL1833852, “Design, synthesis, and X-ray crystallographic analysis of a novel class of HIV-1 protease inhibitors” (J Med Chem, 2011).
Calls of active or inactive are those of the source. No cut-off for these calls is given here.

Columns and labels:
Protease = Protease (Human immunodeficiency virus 1, UniProt Q9YQ12); assay: (§1) Inhibition of Human immunodeficiency virus 1 protease activity after 60 mins by HPLC analysis
[1] = target: Protease (Human immunodeficiency virus 1) (UniProt Q9YQ12); assay: as §1
Protease (Human immunodeficiency virus 1), sequence (Q9YQ12 as listed by the source): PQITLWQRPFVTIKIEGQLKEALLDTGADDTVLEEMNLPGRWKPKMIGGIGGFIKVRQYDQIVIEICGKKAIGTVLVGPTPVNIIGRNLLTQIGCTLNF

Protease, sequence (Q9YQ12 whole entry): as the sequence (Q9YQ12 as listed by the source) above

| SMILES | Ki (Protease) [nM] | inhibition [1] |
| --- | --- | --- |
| C[C@@H]1Cc2ccccc2S(=O)(=O)N(CC(O)C(Cc2ccccc2)NC(=O)OC(C)(C)C)C1 (single isomer, unassigned) | 1000 | – |
| CCOC(=O)NC(Cc1ccccc1)C(O)CN1C[C@@H](C)Cc2ccccc2S1(=O)=O (single isomer, unassigned) | 34 | – |
| C[C@H]1Cc2ccccc2S(=O)(=O)N(CC(O)C(Cc2ccccc2)NC(=O)Oc2ccccc2)C1 (single isomer, unassigned) | 350 | – |
| C[C@H]1Cc2ccccc2S(=O)(=O)N(CC(O)C(Cc2ccccc2)NC(=O)OC(C)(C)C)C1 (single isomer, unassigned) | 29 | – |
| C[C@H]1Cc2cc(F)ccc2S(=O)(=O)N(CC(O)C(Cc2ccccc2)NC(=O)[C@@H]2CN(c3ccccc3)C(=O)O2)C1 (single isomer, unassigned) | 30 | – |
| O=C1N[C@@H](Cc2ccccc2)[C@@H](CN2CCCc3ccccc3S2(=O)=O)O1 | – | inactive |

Continued by falling Ki (Protease), values first:

| Ki (Protease) [nM] | inhibition [1] | SMILES |
| --- | --- | --- |
| 470 | – | CC(C)(C)OC(=O)N[C@@H](Cc1ccccc1)[C@H](O)CN1CCCc2ccccc2S1(=O)=O |
| 186 | – | C[C@H]1Cc2cc(C(F)(F)F)ccc2S(=O)(=O)N(C[C@@H](O)[C@H](Cc2ccccc2)NC(=O)OC(C)(C)C)C1 |
| 100 | – | C[C@H]1Cc2ccc(C(F)(F)F)cc2S(=O)(=O)N(C[C@@H](O)[C@H](Cc2ccccc2)NC(=O)OC(C)(C)C)C1 |
| 27 | – | C=CCOC(=O)N[C@@H](Cc1ccccc1)[C@H](O)CN1C[C@@H](C)Cc2ccccc2S1(=O)=O |
| 19 | – | COc1ccc2c(c1)C[C@H](C)CN(C[C@@H](O)[C@H](Cc1ccccc1)NC(=O)OC(C)(C)C)S2(=O)=O |
